The results in this text go back to ChEMBL document CHEMBL1201862, “PubChem BioAssay data set” (2004).

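Method: 48-hour compound exposure of cells in 96-well plates, five concentrations, linear interpolation of endpoints. GI50: concentration for 50% inhibition of growth.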 Activity calls are given as the source filed them. Cut-off read from the data, not from the text of the source: active = GI50 up to about 1.1 µM and inactive = higher. Positions of bridges follow the written chain, without caps; N, C: chain ends. Non-standard residues stand in square brackets, D forms with d. Residues, ends and D or L forms follow the SMILES beside them. *: point of attachment. Cbz = O=C(OCc1ccccc1)*; Aib = CC(C)(N)C(=O)O; OBn = c1ccc(CO*)cc1; βAla = NCCC(=O)O Where only a bound is given, the exact number is not on record here.

Test systems include OVCAR-4; RXF 393; NCI-H460; BT-549; SF-295; RPMI-8226; SF-539; NCI/ADR-RES; A549; EKVX; CAKI-1; SNB-75; OVCAR-3; HCT-15; HCT-116; TK-10; HOP-62; Malme-3M; CCRF-CEM; MOLT-4.
Assay in all cases: NCI anticancer screen, dose series, 48 h

For the compound `Nc1nnnn1CCO`, the GI50 in the experiment on OVCAR-4, with RXF 393, in the experiment on NCI-H460, in the experiment on BT-549, with SF-295 and in the experiment with RPMI-8226 was > 100 µM (inactive) throughout. Besides, the GI50 in the experiment with SF-539, with NCI/ADR-RES, in the experiment on A549, with EKVX, in the experiment with CAKI-1 and in the experiment with SNB-75 was > 100 µM (inactive) throughout. For the same compound, the GI50 in the experiment with OVCAR-3 was > 100 µM (inactive); with HCT-15 it was greater than 100 µM; in the experiment on HCT-116, > 100 µM (inactive); with TK-10, > 100 µM (inactive); in the experiment with HOP-62 it was > 100 µM (inactive); with Malme-3M, > 100 µM (inactive).
On to `COc1ccc(OC)c(/C=C/c2ccnc3ccccc23)c1`, for which the GI50 is 0.863 µM (active) in the experiment with OVCAR-4; 0.377 µM (active) in the experiment with RXF 393; 0.337 µM (active) in the experiment with CCRF-CEM; 0.371 µM (active) with NCI-H460; 0.519 µM (active) in the experiment with MOLT-4; 0.568 µM (active) in the experiment with BT-549. Besides, the GI50 with SF-295 was 0.332 µM (active); with RPMI-8226, 0.773 µM (active); in the experiment with SF-539 it was 0.21 µM (active); in the experiment on NCI/ADR-RES it was 0.255 µM (active); with A549 it was 0.735 µM (active); in the experiment with EKVX it was 0.463 µM (active). Besides, the GI50 in the experiment with CAKI-1 was 1.28 µM (inactive); with OVCAR-3 it was 0.269 µM (active); in the experiment with HCT-15, 0.372 µM; in the experiment with HCT-116, 0.377 µM (active); in the experiment with TK-10, 1.61 µM (inactive); with HOP-62, 0.45 µM (active). Further, the GI50 in the experiment on Malme-3M was 2.07 µM (inactive).
As for `CC1N(C)C(=O)OC12CCN(CCCC(=O)c1ccc(F)cc1)CC2` (stereo unspecified), the GI50 in the experiment with RXF 393, in the experiment with CCRF-CEM, with NCI-H460, in the experiment on MOLT-4, in the experiment with BT-549 and in the experiment with SF-295 was > 100 µM (inactive) in each case. Besides, the GI50 with RPMI-8226, in the experiment with SF-539, in the experiment on NCI/ADR-RES, with A549, in the experiment with CAKI-1 and in the experiment on SNB-75 was > 100 µM (inactive) each time. Further, the GI50 is > 100 µM (inactive) with OVCAR-3; greater than 100 µM in the experiment with HCT-15; > 100 µM (inactive) with HCT-116; > 100 µM (inactive) with TK-10; > 100 µM (inactive) with HOP-62; > 100 µM (inactive) in the experiment on Malme-3M.
With `CC1(C)Cc2ccccc2C(C)(Cl)C(=O)N1` (stereo unspecified), the GI50 in the experiment with OVCAR-4, with RXF 393, in the experiment on CCRF-CEM, with NCI-H460, in the experiment with MOLT-4 and in the experiment on BT-549 was > 10 µM (inactive) in each case. Moreover, the GI50 in the experiment with SF-295, in the experiment with RPMI-8226, in the experiment with SF-539, in the experiment with NCI/ADR-RES, in the experiment with A549 and in the experiment on EKVX was > 10 µM (inactive) in each case. For the same compound, the GI50 in the experiment on CAKI-1 was > 10 µM (inactive); in the experiment with OVCAR-3, > 10 µM (inactive); with HCT-15 it was greater than 10 µM; in the experiment with HCT-116, > 10 µM (inactive); with TK-10, > 10 µM (inactive); in the experiment with HOP-62, > 10 µM (inactive). Besides, the GI50 in the experiment on Malme-3M was > 10 µM (inactive).
With `CCOC(=O)/C(=C/Nc1c(C)n(C)n(-c2ccccc2)c1=O)C(C)=O`, the GI50 with OVCAR-4, in the experiment with RXF 393, in the experiment on CCRF-CEM, in the experiment with MOLT-4, in the experiment with BT-549 and with SF-295 was > 100 µM (inactive) throughout. The GI50 in the experiment on RPMI-8226, with SF-539, in the experiment with NCI/ADR-RES, with A549, with EKVX and with CAKI-1 was > 100 µM (inactive) each time. The GI50 is > 100 µM (inactive) in the experiment with SNB-75; > 100 µM (inactive) with OVCAR-3; greater than 100 µM in the experiment with HCT-15; > 100 µM (inactive) with HCT-116; > 100 µM (inactive) with TK-10; > 100 µM (inactive) in the experiment with Malme-3M.
`COc1cc2c(cc1OC)C1CN3C(=O)CCC3C(O)C1c1cc(OC)c(OC)cc1-2` (stereo unspecified): the GI50 in the experiment with OVCAR-4, in the experiment with RXF 393, with CCRF-CEM, in the experiment on NCI-H460, in the experiment on MOLT-4 and with BT-549 was > 100 µM (inactive) in each case. In addition, the GI50 in the experiment with SF-295, in the experiment with RPMI-8226, in the experiment on NCI/ADR-RES, with A549, with EKVX and in the experiment with CAKI-1 was > 100 µM (inactive) throughout. In addition, the GI50 in the experiment on SNB-75 is 20.9 µM (inactive); with HCT-15 it was greater than 100 µM; with HCT-116 it was > 100 µM (inactive); with TK-10, > 100 µM (inactive); in the experiment with HOP-62 it was > 100 µM (inactive); with Malme-3M, > 100 µM (inactive).
For the compound `CCOc1cc(NC(C)=O)ccc1C(=O)NN1C(=O)/C(=C/c2ccco2)N=C1c1ccccc1`, the GI50 was > 100 µM (inactive) with OVCAR-4; > 100 µM (inactive) with RXF 393; > 100 µM (inactive) in the experiment on CCRF-CEM; > 100 µM (inactive) in the experiment on NCI-H460; 22.3 µM (inactive) with MOLT-4; > 100 µM (inactive) with BT-549. Further, the GI50 is > 100 µM (inactive) in the experiment on SF-295; 15.1 µM (inactive) in the experiment on RPMI-8226; > 100 µM (inactive) in the experiment on SF-539; > 100 µM (inactive) with NCI/ADR-RES; > 100 µM (inactive) in the experiment on A549; 74.3 µM (inactive) with EKVX. The GI50 with CAKI-1 was > 100 µM (inactive); in the experiment with SNB-75 it was > 100 µM (inactive); in the experiment on OVCAR-3 it was > 100 µM (inactive); with HCT-15, greater than 100 µM; in the experiment on HCT-116, > 100 µM (inactive); in the experiment on HOP-62, > 100 µM (inactive). Further, the GI50 in the experiment on Malme-3M was > 100 µM (inactive).
Consider `C/C=C/C=C/C1=NN(c2cccc(S(=O)(=O)O)c2)C2(C1)SCC(=O)N2c1nc2ccccc2s1` (stereo unspecified), for which the GI50 with OVCAR-4 was 93.3 µM (inactive); in the experiment on RXF 393, > 100 µM (inactive); in the experiment with CCRF-CEM, 24.2 µM (inactive); in the experiment with NCI-H460, 45.5 µM (inactive); with MOLT-4, 29.4 µM (inactive); in the experiment with BT-549, 35.3 µM (inactive). In addition, the GI50 with RPMI-8226 was 29.9 µM (inactive); in the experiment with SF-539 it was 45.9 µM (inactive); with NCI/ADR-RES, 51.2 µM (inactive); with A549, 86.3 µM (inactive); with EKVX it was 55.8 µM (inactive); in the experiment with CAKI-1 it was 86.3 µM (inactive). The GI50 with SNB-75 is 68.5 µM (inactive); in the experiment on HCT-15 it was 69.2 µM; in the experiment on HCT-116, 67 µM (inactive); in the experiment with TK-10, 47.8 µM (inactive); in the experiment with Malme-3M, > 100 µM (inactive).
On to `COc1ccc(OC)c(C2CCc3cnc4nc(N)nc(N)c4c3C2)c1` (stereo unspecified), for which the GI50 with OVCAR-4 is > 100 µM (inactive); with RXF 393, 33.6 µM (inactive); in the experiment on CCRF-CEM it was > 100 µM (inactive); in the experiment on NCI-H460, 57.3 µM (inactive); with MOLT-4, > 100 µM (inactive); in the experiment with BT-549, > 100 µM (inactive). For the same compound, the GI50 with SF-295 is 56.2 µM (inactive); in the experiment with RPMI-8226 it was > 100 µM (inactive); in the experiment on NCI/ADR-RES, > 100 µM (inactive); in the experiment with A549 it was 59.6 µM (inactive); in the experiment on EKVX it was > 100 µM (inactive); in the experiment on CAKI-1, > 100 µM (inactive). Besides, the GI50 in the experiment on SNB-75 was 19.7 µM (inactive); in the experiment on OVCAR-3, > 100 µM (inactive); in the experiment with HCT-15 it was greater than 100 µM; in the experiment on HCT-116, 46 µM (inactive); in the experiment on TK-10, > 100 µM (inactive); in the experiment on HOP-62 it was > 100 µM (inactive). In addition, in the experiment on Malme-3M, the GI50 was > 100 µM (inactive).
Take `CN(C)CCOC(=O)c1ccc(N)cc1`: the GI50 in the experiment on OVCAR-4 is 31.6 µM (inactive); in the experiment on RXF 393, 97.1 µM (inactive); with CCRF-CEM, 20.7 µM (inactive); in the experiment with NCI-H460 it was 31.8 µM (inactive); with MOLT-4, 28.2 µM (inactive); in the experiment on BT-549 it was 51.1 µM (inactive). Further, the GI50 is 47.8 µM (inactive) in the experiment on SF-295; 24.4 µM (inactive) with RPMI-8226; 51.2 µM (inactive) in the experiment on NCI/ADR-RES; 52.4 µM (inactive) in the experiment on A549; 32.3 µM (inactive) in the experiment with CAKI-1; 45.2 µM (inactive) in the experiment on OVCAR-3. For the same compound, the GI50 is greater than 100 µM in the experiment on HCT-15; 54.7 µM (inactive) in the experiment on HCT-116; 44.4 µM (inactive) in the experiment with TK-10; > 100 µM (inactive) in the experiment with HOP-62; 49.8 µM (inactive) in the experiment with Malme-3M.
As to `CC1(C)NC(=O)C(NC(=O)C(CC(=O)OCc2ccccc2)NC(=O)OCc2ccccc2)CCCCNC(=O)CCNC1=O` (stereo unspecified) (Cbz-D(OBn)K[Aib][βAla]; lactam 2-C; configuration not given here), the GI50 with OVCAR-4, with RXF 393, with NCI-H460, in the experiment with MOLT-4, in the experiment on BT-549 and in the experiment on SF-295 was > 100 µM (inactive) each time. Besides, the GI50 in the experiment with RPMI-8226, in the experiment with SF-539, in the experiment on NCI/ADR-RES, with A549, in the experiment with EKVX and in the experiment on CAKI-1 was > 100 µM (inactive) each time. The GI50 in the experiment with SNB-75 is > 100 µM (inactive); in the experiment with OVCAR-3, > 100 µM (inactive); in the experiment with HCT-15 it was greater than 100 µM; in the experiment on HCT-116, > 100 µM (inactive); with TK-10, > 100 µM (inactive); with HOP-62, > 100 µM (inactive). Also, the GI50 in the experiment with Malme-3M was > 100 µM (inactive).
